From US10376520B2, “Methods for the treatment of cardiovascular disorders” (Galapagos NV, priority 2015, dated 2019) come the findings set out here.

The subject of experiment [1] is RA patients. Nature of the experiment: Plasma Serum Amyloid A (SAA) concentration (ELISA), Study 4. Particulars: for SAA level, 4 weeks CFB: 4 weeks change from baseline. It is filed as in vivo, human. On the procedure:
(§1) Randomized double-blind, placebo-controlled add on study in subjects with active RA who have an inadequate response to MTX monotherapy, in combination with methotrexate, administered for 4 weeks in the treatment of subjects with active rheumatoid arthritis who have an inadequate response to methotrexate alone.
(§2) Compound 1 (dosed as a [Compound 1:HCl:3H2O]) capsules administered orally in 30 mg, 75 mg, 150 mg, or 300 mg doses per day for 4 weeks.
Plasma SAA concentration was determined using a commercial available Novex ELISA kit from Life technologies (Bleiswijk, The Netherlands) according to manufacturer's instruction. Catalogue number KHA0011, lot number used: 1433688A.

For experiment [2], the system named is RA patients. Briefly: Plasma total cholesterol level (Selectra autoanalyzer), Study 4. It is filed as in vivo, human. Particulars: for Total cholesterol level, 4 weeks CFB: 4 weeks change from baseline. On the procedure:
as §1, §2
Triglycerides, [HDL] cholesterol, and plasma cholesterol were measured on the Selectra autoanalyzer (Sopachem BV, 44-RI Straat 33, 4051 AP Ochten, The Netherlands). All assays were commercially available from DiaSys Diagnostic Systems GmbH, Alte Strasse 9, 65558 Holzheim, Germany. […]

Regarding `O=C(Nc1nc2cccc(-c3ccc(CN4CCS(=O)(=O)CC4)cc3)n2n1)C1CC1` [Compound 1, cyclopropanecarboxylic acid {5-[4-(1,1-dioxo-thiomorpholin-4-ylmethyl)-phenyl]-[1,2,4]triazolo[1,5-a]pyridin-2yl}-amide], the “SAA level, 4 weeks CFB” value in the experiment with RA patients [1] (30 mg q.d.) was −15.4%; in the experiment with RA patients [1] (75 mg q.d.), −13.5%; in the experiment on RA patients [1] (150 mg q.d.), −56.7%; in the experiment with RA patients [1] (300 mg q.d.), −62.0%. For the same compound, the “SAA level, Baseline” value was determined as 935.4 ng/mL with RA patients [1] (30 mg q.d.), 883.7 ng/mL with RA patients [1] (75 mg q.d.), 621.3 ng/mL with RA patients [1] (150 mg q.d.) and 555.6 ng/mL with RA patients [1] (300 mg q.d.). Also, the “SAA level, week 4” value in the experiment on RA patients [1] (30 mg q.d.) turned out to be 436.2 ng/mL; in the experiment with RA patients [1] (75 mg q.d.), 201.3 ng/mL; in the experiment on RA patients [1] (150 mg q.d.), 388.5 ng/mL; in the experiment on RA patients [1] (300 mg q.d.), 43.2 ng/mL. Besides, the “Total cholesterol level, 4 weeks CFB” value in the experiment on RA patients [2] (30 mg q.d.) is on record as 25.9%; in the experiment on RA patients [2] (75 mg q.d.), 5.2%; in the experiment with RA patients [2] (150 mg q.d.), −1.2%; in the experiment on RA patients [2] (300 mg q.d.), 19.4%. In addition, the Total cholesterol level, Baseline in the experiment on RA patients [2] (30 mg q.d.) came to 4.9 mM; in the experiment with RA patients [2] (75 mg q.d.) it was 4.9 mM; in the experiment on RA patients [2] (150 mg q.d.), 5 mM; with RA patients [2] (300 mg q.d.), 4.7 mM. Moreover, the Total cholesterol level, week 4 with RA patients [2] (30 mg q.d.) came out at 5.8 mM; with RA patients [2] (75 mg q.d.), 5.1 mM; in the experiment on RA patients [2] (150 mg q.d.), 5 mM; in the experiment on RA patients [2] (300 mg q.d.), 5.7 mM.
